Laboratory results as given in patent publication US9981909B2 (Janssen Pharmaceutica NV, priority 2008, dated 2018).
Where a name gives a salt, the structure may show the parent alone.

What was measured:
rat 5-HT7 receptor = rat 5-HT7 receptor (Rattus norvegicus (Rat), UniProt P32305); assay: r5-HT7 binding assay, competitive radioligand binding with [3H]5-CT
Summary of the method: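 Rat 5-HT7 binding: HEK-293 membrane fractions, [3H]5-CT displacement, radioactivity counted, Ki reported. Antagonist mode: intact r5-HT7 HEK-293 cells, test compound 10 min, then 5-CT 100 nM for 20 min, lysis, cAMP by competitive immunoassay.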

h5HT2B = h5HT2B (Homo sapiens (Human), UniProt P41595); assay: h5HT2B binding
h5HT2B, sequence (P41595 whole entry): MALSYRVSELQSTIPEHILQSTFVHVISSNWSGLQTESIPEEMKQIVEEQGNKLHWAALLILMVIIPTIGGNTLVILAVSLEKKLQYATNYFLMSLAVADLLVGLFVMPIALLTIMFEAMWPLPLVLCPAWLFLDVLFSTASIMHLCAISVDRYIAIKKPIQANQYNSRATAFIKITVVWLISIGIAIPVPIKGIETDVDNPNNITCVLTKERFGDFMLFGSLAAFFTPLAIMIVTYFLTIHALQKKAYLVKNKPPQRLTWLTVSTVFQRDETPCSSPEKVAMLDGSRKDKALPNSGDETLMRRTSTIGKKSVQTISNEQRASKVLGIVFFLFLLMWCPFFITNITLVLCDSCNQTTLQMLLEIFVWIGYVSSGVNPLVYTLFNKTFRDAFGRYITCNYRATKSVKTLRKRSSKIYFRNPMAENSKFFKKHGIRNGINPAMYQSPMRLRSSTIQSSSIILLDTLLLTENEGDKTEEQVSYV

h5HT2C = h5HT2C (Homo sapiens (Human), UniProt P28335); assay: h5HT2C binding
h5HT2C, sequence (P28335 33-458): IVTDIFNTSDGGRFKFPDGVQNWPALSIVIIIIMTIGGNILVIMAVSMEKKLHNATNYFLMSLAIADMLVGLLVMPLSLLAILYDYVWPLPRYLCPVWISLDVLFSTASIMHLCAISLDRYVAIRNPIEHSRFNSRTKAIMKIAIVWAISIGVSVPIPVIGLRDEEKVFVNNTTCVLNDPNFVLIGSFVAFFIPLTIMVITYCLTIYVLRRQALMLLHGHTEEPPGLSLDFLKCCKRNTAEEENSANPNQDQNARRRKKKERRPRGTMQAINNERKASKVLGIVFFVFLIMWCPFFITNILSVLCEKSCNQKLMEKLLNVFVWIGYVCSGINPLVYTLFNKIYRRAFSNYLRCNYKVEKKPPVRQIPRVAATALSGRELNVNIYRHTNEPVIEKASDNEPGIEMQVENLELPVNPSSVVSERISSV

h5HT2A = h5HT2A (Homo sapiens (Human), UniProt P28223); assay: h5HT2A binding
h5HT2A, sequence (P28223 whole entry): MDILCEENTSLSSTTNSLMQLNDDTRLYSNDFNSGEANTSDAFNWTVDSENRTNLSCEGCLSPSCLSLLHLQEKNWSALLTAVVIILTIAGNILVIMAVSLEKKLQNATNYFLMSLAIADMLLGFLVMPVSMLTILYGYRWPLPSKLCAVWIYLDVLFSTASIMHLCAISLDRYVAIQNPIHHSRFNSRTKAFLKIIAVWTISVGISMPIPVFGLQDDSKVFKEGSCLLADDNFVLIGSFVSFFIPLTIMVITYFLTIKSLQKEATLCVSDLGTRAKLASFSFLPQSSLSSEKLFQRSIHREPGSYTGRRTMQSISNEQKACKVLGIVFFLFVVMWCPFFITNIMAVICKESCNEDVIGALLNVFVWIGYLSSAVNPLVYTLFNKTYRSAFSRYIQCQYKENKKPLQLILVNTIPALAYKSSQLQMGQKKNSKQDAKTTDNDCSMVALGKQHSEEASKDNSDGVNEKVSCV

r5-HT7 receptor = r5-HT7 receptor (Rattus norvegicus (Rat), UniProt P32305); assay: HitHunter cAMP assay, antagonist testing against 100 nM 5-CT; assay type: cell-based; conditions: antagonist testing, 100 nM 5-CT challenge, HEK-293 r5-HT7; read-out: R5HT7 cAMP pKb (converted)
r5-HT7 receptor, sequence (P32305 1-435): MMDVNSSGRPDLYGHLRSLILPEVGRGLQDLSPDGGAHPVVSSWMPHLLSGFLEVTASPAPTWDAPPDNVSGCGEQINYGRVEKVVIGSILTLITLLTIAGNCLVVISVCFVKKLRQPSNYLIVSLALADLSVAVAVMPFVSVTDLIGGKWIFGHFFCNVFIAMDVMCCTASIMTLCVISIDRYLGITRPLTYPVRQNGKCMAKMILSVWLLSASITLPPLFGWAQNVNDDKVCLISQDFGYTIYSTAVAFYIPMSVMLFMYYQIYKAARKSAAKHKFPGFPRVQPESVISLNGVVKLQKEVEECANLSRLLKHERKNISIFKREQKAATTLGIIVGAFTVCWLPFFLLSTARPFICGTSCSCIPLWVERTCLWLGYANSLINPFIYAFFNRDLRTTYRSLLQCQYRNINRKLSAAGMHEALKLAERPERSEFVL
Procedure: Receptor binding was performed using membrane fractions prepared from the HEK-293 cell line recombinantly expressing rat 5-HT7 receptors (NCBI accession NM_022938). Compound affinity for the rat 5-HT7 receptor subtype was evaluated by competitive radioligand binding assays using 5-carboxamido[^3H]tryptamine ([^3H]5-CT) (Amersham Biosciences, cat. 90000403) detection. HitHunter™ cAMP assays are in-vitro based competitive immunoassays. The assay was performed on the HEK-293 cell line stably transfected with r5-HT7 receptor. Cells were pre-incubated with test compounds for 10 minutes. For antagonist testing, the cells were then challenged with 100 nM 5-CT for 20 minutes. Cells were then lysed and cAMP measured according to manufacturers protocol (Amersham, cat. NET791250UC) or [^3H]mesulergine (Amersham, cat. TRK1041). The assay was performed on membranes prepared from HEK-293 cells stably transfected with h5-HT6. Following centrifugation, membranes were resuspended and incubated for 60 min at room temperature with 1.7 nM [^3H]LSD in the presence of increasing concentration of test compounds. Nonspecific binding was defined in the presence of 10 μM clozapine (Tocris, cat. TRK1068). Homogenized HEK-293 membranes expressing the human SERT were incubated in 50 mM Tris-HCl (pH 7.5), 120 mM NaCl, 5 mM KCl with [^3H]-citalopram (3 nM) with or without test compounds. Nonspecific binding was determined in the presence of 10 μM fluoxetine. Radioactivity readouts and Ki values were performed as previously described for r5-HT7. […] Compounds were assayed in their free form or as salts, as indicated in the Examples section above.

human SERT = human SERT (Homo sapiens (Human), UniProt P31645); assay: human SERT binding assay with [3H]-citalopram on HEK-293 membranes; conditions: read-out: hSERT binding Ki
human SERT, sequence (P31645 whole entry): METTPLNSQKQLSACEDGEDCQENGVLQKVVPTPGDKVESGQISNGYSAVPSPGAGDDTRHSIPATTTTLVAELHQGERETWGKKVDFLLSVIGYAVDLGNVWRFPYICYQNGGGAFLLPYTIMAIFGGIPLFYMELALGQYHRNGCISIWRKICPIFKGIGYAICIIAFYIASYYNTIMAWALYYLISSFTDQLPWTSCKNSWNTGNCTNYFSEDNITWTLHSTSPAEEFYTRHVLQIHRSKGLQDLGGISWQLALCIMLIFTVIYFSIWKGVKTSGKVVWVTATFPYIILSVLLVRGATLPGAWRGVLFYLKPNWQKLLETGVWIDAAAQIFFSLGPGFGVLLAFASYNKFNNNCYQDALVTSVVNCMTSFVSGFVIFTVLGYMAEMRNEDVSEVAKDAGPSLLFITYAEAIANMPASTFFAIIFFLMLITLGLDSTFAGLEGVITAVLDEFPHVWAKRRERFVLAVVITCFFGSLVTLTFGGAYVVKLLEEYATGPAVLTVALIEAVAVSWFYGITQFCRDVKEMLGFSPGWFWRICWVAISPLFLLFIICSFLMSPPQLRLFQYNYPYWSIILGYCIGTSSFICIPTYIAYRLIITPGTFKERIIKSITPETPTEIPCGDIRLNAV

[1] = rat 5-HT7 receptor, HEK-293 membranes

rat 5-HT7 receptor, sequence (P32305 1-435): as the sequence (P32305 1-435) above

| Compound | Ki (rat 5-HT7 receptor; [1]) | Ki (h5HT2B) | Ki (h5HT2C) | Ki (h5HT2A) | Kb (r5-HT7 receptor) | Ki (human SERT) | Ki (rat 5-HT7 receptor; rat 5-HT7, HEK-293 membranes) |
| --- | --- | --- | --- | --- | --- | --- | --- |
| Clc1cccc(COc2cc(Cl)ccc2O[C@H]2CCNC2)c1 [Example 94, (S)-3-[4-Chloro-2-(3-chloro-benzyloxy)-phenoxy]-pyrrolidine] | > 2500 nM | 250 nM | 69 nM | 32 nM | – | – | – |
| COC(COc1ccc(Cl)cc1OC1CNC1)c1ccccc1 (stereo not shown) [Example 168, 3-[5-Chloro-2-(2-methoxy-2-phenyl-ethoxy)-phenoxy]-azetidine] | 130 nM | 21 nM | 48 nM | 8 nM | – | – | – |
| Clc1ccc(O[C@@H]2CCNC2)c(OCc2ccccc2)c1 [Example 90, (R)-3-(2-Benzyloxy-4-chloro-phenoxy)-pyrrolidine] | 920 nM | 83 nM | 160 nM | 20 nM | – | – | – |
| Brc1ccc(OCc2ccccc2)c(OC2CNC2)c1 [Example 1, 3-(2-Benzyloxy-5-bromo-phenoxy)-azetidine] | 9 nM | – | – | – | 12.6 nM | 48 nM | – |
| Clc1ccc2c(c1)CCC2Oc1ccc(Br)cc1OC1CNC1 (racemic) [Example 152, (±)-3-[5-Bromo-2-(5-chloro-indan-1-yloxy)-phenoxy]-azetidine] | 19 nM | – | – | – | 39.8 nM | 25 nM | – |
| Fc1ccc2c(c1)C(Oc1ccc(Cl)cc1OC1CNC1)CC2 (racemic) [Example 150, (±)-3-[5-Chloro-2-(6-fluoro-indan-1-yloxy)-phenoxy]-azetidine] | 10 nM | – | – | – | 10 nM | 13 nM | – |
| CN1CC[C@@H](Oc2ccc(Cl)cc2OCc2cccc(Cl)c2)C1 [Example 93, (R)-3-[4-Chloro-2-(3-chloro-benzyloxy)-phenoxy]-1-methyl-pyrrolidine] | 140 nM | 13 nM | 51 nM | 3 nM | – | – | – |
| FC(F)(F)c1cccc(COc2ccc(Br)cc2OC2CNC2)c1 [Example 8, 3-[5-Bromo-2-(3-trifluoromethyl-benzyloxy)-phenoxy]-azetidine] | 6 nM | – | – | – | 7.94 nM | 4 nM | – |
| Clc1ccc(OCc2ccccc2)c(OC2CNC2)c1 [Example 40, 3-(2-Benzyloxy-5-chloro-phenoxy)-azetidine] | 9 nM | – | – | – | 39.8 nM | 43 nM | – |
| CC(C)N1CC(Oc2cc(Br)ccc2OCc2cccc(Cl)c2)C1 [Example 5, 3-[5-Bromo-2-(3-chloro-benzyloxy)-phenoxy]-1-isopropyl-azetidine] | 8 nM | – | – | – | 5.01 nM | 194 nM | – |
| COc1cccc(COc2ccc(Cl)cc2OC2CNC2)c1 [Example 33, 3-[5-Chloro-2-(3-methoxy-benzyloxy)-phenoxy]-azetidine] | 7 nM | – | – | – | 15.8 nM | 8 nM | – |
| Clc1ccc(Oc2ccc3ccccc3c2)c(OC2CNC2)c1 [Example 260, 3-[5-Chloro-2-(naphthalen-2-yloxy)-phenoxy]-azetidine] | – | – | – | – | 1000 nM | 2 nM | 16 nM |
| FC(F)(F)c1ccc(COc2ccc(Cl)cc2OC2CCNCC2)o1 [Example 63, 4-[5-Chloro-2-(5-trifluoromethyl-furan-2-ylmethoxy)-phenoxy]-piperidine hydrochloride] | 7 nM | – | – | – | 25.1 nM | 48 nM | – |
| CCCN1CC(Oc2cc(Br)ccc2OCc2cccc(F)c2)C1 [Example 19, 3-[5-Bromo-2-(3-fluoro-benzyloxy)-phenoxy]-1-propyl-azetidine] | 4 nM | – | – | – | 2 nM | 396 nM | – |
| CC(C)N1CC(Oc2cc(F)ccc2OCc2ccc(C(F)(F)F)o2)C1 [Example 209, 3-[5-Fluoro-2-(5-trifluoromethyl-furan-2-ylmethoxy)-phenoxy]-1-isopropyl-azetidine] | 13 nM | – | – | – | 20 nM | 20 nM | – |
| CCN1CC(Oc2cc(Br)ccc2OCc2cccc(F)c2)C1 [Example 18, 3-[5-Bromo-2-(3-fluoro-benzyloxy)-phenoxy]-1-ethyl-azetidine] | 5 nM | – | – | – | 1.58 nM | 435 nM | – |
